Tests used:
Assay in all cases: relative viability (nuclei count vs DMSO), 5 days (fraction); higher = more cells survive
4EGI-1 + Crizotinib = compound: O=C(O)C(Cc1ccccc1[N+](=O)[O-])=NNc1nc(-c2ccc(Cl)c(Cl)c2)cs1 (mixture of isomers) [4EGI-1] + C[C@@H](Oc1cc(-c2cnn(C3CCNCC3)c2)cnc1N)c1c(Cl)ccc(F)c1Cl [Crizotinib] (partner 1 µM)
Procedure, shortened: (§1)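 Dosing by pin tool came one day after lung cancer cell lines were seeded in 1536-well plates, using either one drug or a fixed anchor-drug dose plus five library-drug doses (not always all listed) in √10 steps. After 5 days, nuclei were counted on 4× images. Relative viability is treated-well nuclei count divided by vehicle-well nuclei count, and values are medians of duplicate plates.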

4EGI-1 + Navitoclax = compound: O=C(O)C(Cc1ccccc1[N+](=O)[O-])=NNc1nc(-c2ccc(Cl)c(Cl)c2)cs1 (mixture of isomers) [4EGI-1] + CC1(C)CCC(c2ccc(Cl)cc2)=C(CN2CCN(c3ccc(C(=O)NS(=O)(=O)c4ccc(N[C@H](CCN5CCOCC5)CSc5ccccc5)c(S(=O)(=O)C(F)(F)F)c4)cc3)CC2)C1 [Navitoclax] (partner 0.5 µM)
Procedure, shortened: as §1

XMD8-85 + Tozasertib = compound: CN1CCN(CC1)C2=CC(=C(C=C2)NC3=NC=C4C(=N3)N(C5=CC=CC=C5C(=O)N4C)C)OC [XMD8-85] + Cc1cc(Nc2cc(N3CCN(C)CC3)nc(Sc3ccc(NC(=O)C4CC4)cc3)n2)n[nH]1 [Tozasertib] (partner 0.1 µM)
Procedure, shortened: as §1

4EGI-1 + Pemetrexed = compound: O=C(O)C(Cc1ccccc1[N+](=O)[O-])=NNc1nc(-c2ccc(Cl)c(Cl)c2)cs1 (mixture of isomers) [4EGI-1] + Nc1nc2[nH]cc(CCc3ccc(C(=O)N[C@@H](CCC(=O)O)C(=O)O)cc3)c2c(=O)[nH]1 [Pemetrexed] (partner 0.2 µM)
Procedure, shortened: as §1

Cell Line	relative viability (4EGI-1 + Crizotinib; first compound 0.5 µM)	relative viability (4EGI-1 + Crizotinib; first compound 1.581 µM)	relative viability (4EGI-1 + Crizotinib; first compound 5 µM)	relative viability (4EGI-1 + Crizotinib; first compound 15.81 µM)	relative viability (4EGI-1 + Crizotinib; first compound 50 µM)	relative viability (4EGI-1 + Navitoclax; first compound 0.5 µM)	relative viability (4EGI-1 + Navitoclax; first compound 5 µM)	relative viability (4EGI-1 + Navitoclax; first compound 15.81 µM)	relative viability (4EGI-1 + Navitoclax; first compound 50 µM)	relative viability (XMD8-85 + Tozasertib; first compound 0.08 µM)	relative viability (XMD8-85 + Tozasertib; first compound 0.253 µM)	relative viability (XMD8-85 + Tozasertib; first compound 0.8 µM)	relative viability (XMD8-85 + Tozasertib; first compound 2.53 µM)	relative viability (XMD8-85 + Tozasertib; first compound 8 µM)	relative viability (4EGI-1 + Pemetrexed; first compound 0.5 µM)	relative viability (4EGI-1 + Pemetrexed; first compound 1.581 µM)	relative viability (4EGI-1 + Pemetrexed; first compound 5 µM)	relative viability (4EGI-1 + Pemetrexed; first compound 15.81 µM)	relative viability (4EGI-1 + Pemetrexed; first compound 50 µM)	relative viability (4EGI-1 + Navitoclax; first compound 1.581 µM)
NCI-H647	1.05	1.05	1.16	0.656	0.155	1.27	1.12	0.995	0.307	0.173	0.195	0.29	0.202	0.0891	0.198	0.179	0.206	0.156	0.087	
NCI-H1651	0.853	0.823	0.911	0.803	0.836	1.17	0.965	1.01	0.33	0.717	0.818	0.68	0.436	0.307	0.599	0.576	0.636	0.52	0.412	0.914
NCI-H322M	0.947	0.815	1.02	0.823	1.02	1.21	1.16	1.17	1.41	0.427	0.496	0.462	0.451	0.436	0.576		0.643	0.618	0.377	1.18
LU99A	0.657		0.677	0.463	0.215	0.765	0.87	0.986	0.428	0.281	0.257	0.252	0.253	0.239	0.177	0.179	0.166	0.248	0.154	
PC-14	1.08	0.617	0.875		0.907	1.09	0.985		0.981	0.556	0.529	0.541	0.463	0.397	0.135		0.159	0.185	0.0861	
SK-MES-1	1.04	0.957	1.02	0.872	0.921	1.18	1.19	1.01	0.949	0.998	0.939		0.81	0.276	0.979	0.713	0.968	0.751	0.24	1.27
NCI-H2347	0.841	0.667	0.753	0.567	0.556	0.972	0.776	0.861	0.721	0.497	0.438	0.545	0.516	0.386	0.438	0.407	0.452	0.414	0.413	0.586
SK-LU-1	0.891	1.05	0.943	0.688	0.334	0.792	0.974	0.548	0.161	0.278	0.328	0.276	0.294	0.185	0.932	1.02	0.992	1.06	0.319	1.09
NCI-H1437	0.931	0.9	0.77	0.837	0.315	1.19	1.04	0.395	0.178	0.408	0.415	0.401	0.329	0.221	0.335	0.312	0.313	0.271	0.191	1
NCI-H596	1.15	0.846	1.13	0.878	0.557	0.956	0.86	0.869	0.805	0.75	0.834	0.975	0.728	0.488	0.535	0.458	0.51	0.455	0.43	0.708
PC-3 [JPC-3]	0.998	0.883	0.876		0.55	0.82	0.765		0.612	0.723	0.848	0.974	1	0.625	1.09		1.21	0.491	0.333	0.753
RERF-LC-KJ	0.852	0.676	0.815	0.675	0.684	0.902	0.858	0.632	0.706	0.552	0.465	0.473	0.409	0.295	0.51	0.351	0.444	0.457	0.431	
NCI-H2170	1.24	1.15	1.15	0.902	0.586	0.671	0.584	0.573	0.354	0.681	0.671	0.731	0.639	0.456	0.259	0.256	0.247	0.256	0.265	0.515
NCI-H1993	0.943	0.776	0.92	0.629	0.688	0.952	0.77	0.7	0.483	0.583	0.628	0.56	0.557	0.546	0.529	0.569	0.541	0.518	0.481	0.895
A-427	1.02	0.728	0.791	0.822	0.424	0.998	0.815	0.687	0.928	0.193	0.225	0.203	0.185	0.186	0.982		0.99	0.838	0.228	0.823
NCI-H1650	1.03		0.888	0.547	0.246	1.23	0.932	0.354	0.286	0.358	0.409	0.413	0.216	0.177	0.369		0.412	0.356	0.313	
HCC-78	0.365	0.258	0.371	0.286	0.373	0.96	0.753	0.829	0.802	0.407	0.465	0.397	0.434	0.296	0.911		0.916	0.892	0.972	0.492
CAL-12T	0.663		0.742	0.618	0.281	1.1	1.17	1.23	0.861	0.287	0.348	0.296	0.259	0.214	1.21		1.25	1.14	0.86	
NCI-H3122	0.274	0.262	0.281	0.24	0.221	1.01	1.02	1.06	1.01	0.427	0.453	0.373	0.237	0.177	0.196	0.192	0.189	0.224	0.175	0.975
LOU-NH91	0.788		0.72	0.508	0.55	0.91	0.741	0.367	0.526	0.644	0.631	0.636	0.669	0.419	0.431		0.387	0.435	0.481	
ChaGo-K-1	1.23		1.15	0.961	0.553	0.775	1.1	0.773	0.247	0.225	0.233	0.207	0.196	0.144	0.26	0.266	0.269	0.267	0.265	
NCI-H2009	1.12	1.05	1.06	0.988	0.247	1.19	1.22	1.11	0.17	0.727	0.696	0.703	0.416	0.308	1.01	1	1.04	0.951	0.805	1.21
NCI-H23	0.592		0.654	0.501	0.481	1.12	0.947	0.883	0.708	0.492	0.369	0.34	0.272	0.209	0.819		0.77	0.551	0.274	
NCI-H2228	0.416	0.508	0.653	0.502	0.195	1.08	0.99	0.617	0.931	0.194	0.261	0.267	0.207	0.197	0.377	0.472	0.367	0.338	0.164	1.08
